Test results as given in patent US9980943B2, “Methods of treating muscular dystrophy” (BOARD OF REGENTS OF THE NEVADA SYSTEM OF HIGHER EDUCATION, …, priority 2013, dated 2018).

Tests used:
Type in all cases: cell-based, mouse
[1] = tested on: α7 integrin (LacZ reporter in α7βgal+/− myoblasts); assay: Myoblast α7+/LacZ integrin FDG assay (Burkin assay in myoblasts, 96-well); conditions: α7+/LacZ myoblasts, 96-well
[2] = tested on: α7 integrin (LacZ reporter in α7+/LacZ myotubes); assay: Myotube α7 integrin FDG assay (Burkin assay in myotubes, 96-well); conditions: myotubes
[3] = tested on: β-galactosidase in CMV-LacZ C2C12 myotubes; assay: CMV-LacZ secondary screen in C2C12 myotubes (β-Gal stabilizing assay); conditions: for CMV-LACZ in Myotubes (β-galactosidase activity relative to DMSO): CMV-LacZ C2C12 myotubes, 96-well format; for CMV-LACZ in Myotubes, signal relative to DMSO: C2C12 CMV-LacZ myotubes, fold relative to DMSO
Outline: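 CMV-LacZ C2C12 line (clonal, FDG-screened); myoblasts/myotubes dosed 0.5–40 μM (0.5, 1, 5, 10, 20, 40 μM); n=2 per point; β-gal stabilization read-out.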

For `COc1ccc(-n2c(SCC(=O)Nc3cccc(C(=O)O)c3)nnc2-c2ccco2)cc1` [MLS001215742-01], the “Burkin Assay in Myoblasts, value relative to DMSO” value ([1]; 0.5 uM) was 0.887, the “Burkin Assay in Myoblasts, value relative to DMSO” value ([1]; 1 uM) was 0.926 and the “Burkin Assay in Myoblasts, value relative to DMSO” value ([1]; 5 uM) was 1.04. For the same molecule, the “Burkin Assay in Myoblasts, value relative to DMSO” value ([1]; 10 uM) was 1.105, the “Burkin Assay in Myoblasts, value relative to DMSO” value ([1]; 20 uM) was 0.7682 and the “Burkin Assay in Myoblasts, value relative to DMSO” value ([1]; 40 uM) was 0.8165. For the same molecule, the “Burkin Assay in Myotubes (signal relative to DMSO)” value ([2]; 0.5 uM) was 1.02, the “Burkin Assay in Myotubes (signal relative to DMSO)” value ([2]; 1 uM) was 1.104 and the “Burkin Assay in Myotubes (signal relative to DMSO)” value ([2]; 5 uM) was 0.9803. For the same molecule, the “Burkin Assay in Myotubes (signal relative to DMSO)” value ([2]; 10 uM) was 1.155, the “Burkin Assay in Myotubes (signal relative to DMSO)” value ([2]; 20 uM) was 0.8384 and the “Burkin Assay in Myotubes (signal relative to DMSO)” value ([2]; 40 uM) was 0.9687. The “CMV-LACZ in Myotubes (β-galactosidase activity relative to DMSO)” value ([3]; 5 uM) was 1.026, the “CMV-LACZ in Myotubes (β-galactosidase activity relative to DMSO)” value ([3]; 10 uM) was 1.1034 and the “CMV-LACZ in Myotubes (β-galactosidase activity relative to DMSO)” value ([3]; 20 uM) was 0.9254. For the same molecule, the “CMV-LACZ in Myotubes (β-galactosidase activity relative to DMSO)” value ([3]; 40 uM) was 0.9851.

With `O=C(O)c1cc(N=Cc2c(O)c3ccccc3oc2=O)ccc1O` [MLS001216260-01] the “Burkin Assay in Myoblasts, signal relative to DMSO” value ([1]; 0.5 uM) was 1.0145, the “Burkin Assay in Myoblasts, signal relative to DMSO” value ([1]; 1 uM) was 0.984 and the “Burkin Assay in Myoblasts, signal relative to DMSO” value ([1]; 5 uM) was 0.8531. For the same molecule, the “Burkin Assay in Myoblasts, signal relative to DMSO” value ([1]; 10 uM) was 0.8798, the “Burkin Assay in Myoblasts, signal relative to DMSO” value ([1]; 20 uM) was 0.8781 and the “Burkin Assay in Myoblasts, signal relative to DMSO” value ([1]; 40 uM) was 0.8933. The “Burkin Assay in Myotubes, α7 integrin LacZ reporter signal relative to DMSO” value ([2]; 0.5 uM) was 1.005, the “Burkin Assay in Myotubes, α7 integrin LacZ reporter signal relative to DMSO” value ([2]; 1 uM) was 0.9893 and the “Burkin Assay in Myotubes, α7 integrin LacZ reporter signal relative to DMSO” value ([2]; 5 uM) was 1.16. The “Burkin Assay in Myotubes, α7 integrin LacZ reporter signal relative to DMSO” value ([2]; 10 uM) was 1.06, the “Burkin Assay in Myotubes, α7 integrin LacZ reporter signal relative to DMSO” value ([2]; 20 uM) was 0.9144 and the “Burkin Assay in Myotubes, α7 integrin LacZ reporter signal relative to DMSO” value ([2]; 40 uM) was 0.9348. For the same molecule, the “CMV-LACZ in Myotubes, signal relative to DMSO” value ([3]; 5 uM) was 0.8516, the “CMV-LACZ in Myotubes, signal relative to DMSO” value ([3]; 10 uM) was 1.031 and the “CMV-LACZ in Myotubes, signal relative to DMSO” value ([3]; 20 uM) was 1.09. For the same molecule, the “CMV-LACZ in Myotubes, signal relative to DMSO” value ([3]; 40 uM) was 0.8367.

With `COc1cc(CNCc2ccc(C(=O)O)cc2)ccc1OCc1ccc(F)cc1.Cl` [MLS001216405-01] the “Burkin Assay in Myoblasts, value relative to DMSO” value ([1]; 0.5 uM) was 1.132, the “Burkin Assay in Myoblasts, value relative to DMSO” value ([1]; 1 uM) was 0.9785 and the “Burkin Assay in Myoblasts, value relative to DMSO” value ([1]; 5 uM) was 0.9945. The “Burkin Assay in Myoblasts, value relative to DMSO” value ([1]; 10 uM) was 0.9208, the “Burkin Assay in Myoblasts, value relative to DMSO” value ([1]; 20 uM) was 0.9202 and the “Burkin Assay in Myoblasts, value relative to DMSO” value ([1]; 40 uM) was 0.7667. For the same molecule, the “Burkin Assay in Myotubes (signal relative to DMSO)” value ([2]; 0.5 uM) was 1.128, the “Burkin Assay in Myotubes (signal relative to DMSO)” value ([2]; 1 uM) was 0.9927 and the “Burkin Assay in Myotubes (signal relative to DMSO)” value ([2]; 5 uM) was 1.124. The “Burkin Assay in Myotubes (signal relative to DMSO)” value ([2]; 10 uM) was 0.9642, the “Burkin Assay in Myotubes (signal relative to DMSO)” value ([2]; 20 uM) was 0.9387 and the “Burkin Assay in Myotubes (signal relative to DMSO)” value ([2]; 40 uM) was 0.8706. The “CMV-LACZ in Myotubes, signal relative to DMSO” value ([3]; 5 uM) was 0.9192, the “CMV-LACZ in Myotubes, signal relative to DMSO” value ([3]; 10 uM) was 0.8008 and the “CMV-LACZ in Myotubes, signal relative to DMSO” value ([3]; 20 uM) was 1.345. For the same molecule, the “CMV-LACZ in Myotubes, signal relative to DMSO” value ([3]; 40 uM) was 1.08.
